US11306092B2, “Amino indole compounds useful as TLR inhibitors” (BRISTOL-MYERS SQUIBB COMPANY, priority 2017, dated 2022)

Experiments:
human TLR7 = target: T1, human TLR7 (Homo sapiens, UniProt Q9NYK1); test: TLR7 inhibition reporter assay (HEK-Blue SEAP reporter); assay type: cell-based; conditions: HEK-Blue cells overexpressing human TLR7; gardiquimod 7.5 μM; 22 hour incubation
T1 construct: host or cells: HEK-Blue cells
T1 sequence (Q9NYK1 27-1049): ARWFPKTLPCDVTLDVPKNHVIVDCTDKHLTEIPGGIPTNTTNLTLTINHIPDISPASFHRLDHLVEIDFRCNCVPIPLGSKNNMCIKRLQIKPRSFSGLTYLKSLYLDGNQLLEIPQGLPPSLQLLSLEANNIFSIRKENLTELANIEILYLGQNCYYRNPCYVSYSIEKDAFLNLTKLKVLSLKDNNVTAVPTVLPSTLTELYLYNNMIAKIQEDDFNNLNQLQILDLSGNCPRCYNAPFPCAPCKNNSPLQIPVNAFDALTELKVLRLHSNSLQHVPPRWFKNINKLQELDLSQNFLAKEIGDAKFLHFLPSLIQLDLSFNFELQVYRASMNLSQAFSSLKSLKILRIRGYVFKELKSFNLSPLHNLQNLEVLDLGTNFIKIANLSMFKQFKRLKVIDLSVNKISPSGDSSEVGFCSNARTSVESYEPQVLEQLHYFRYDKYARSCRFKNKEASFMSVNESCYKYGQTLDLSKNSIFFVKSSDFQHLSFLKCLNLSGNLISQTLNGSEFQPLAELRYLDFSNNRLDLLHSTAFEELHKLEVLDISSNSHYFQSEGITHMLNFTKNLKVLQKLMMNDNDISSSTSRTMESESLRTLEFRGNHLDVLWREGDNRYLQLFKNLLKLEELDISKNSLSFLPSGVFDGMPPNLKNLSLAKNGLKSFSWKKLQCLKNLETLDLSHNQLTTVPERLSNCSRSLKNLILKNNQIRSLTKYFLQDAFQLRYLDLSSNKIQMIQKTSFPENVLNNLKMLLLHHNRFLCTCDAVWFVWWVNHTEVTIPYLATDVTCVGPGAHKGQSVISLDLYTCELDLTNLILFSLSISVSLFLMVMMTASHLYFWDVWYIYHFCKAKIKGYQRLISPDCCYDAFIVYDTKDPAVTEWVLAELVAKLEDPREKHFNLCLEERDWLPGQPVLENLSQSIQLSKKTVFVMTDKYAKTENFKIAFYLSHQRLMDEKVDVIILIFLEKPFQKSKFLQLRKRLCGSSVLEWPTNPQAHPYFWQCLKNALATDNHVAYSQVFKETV
Description: (§1) TLR7/8/9 Inhibition Reporter Assays
(§2) HEK-Blue™-cells (Invivogen) overexpressing human TLR7, TLR8 or TLR9 receptors were used for screening inhibitors of these receptors using an inducible SEAP (secreted embryonic alkaline phosphatase) reporter gene under the control of the IFN-β minimal promoter fused to five NF-κB and AP-1-binding sites. Briefly, cells are seeded into Greiner 384 well plates (15000 cells per well for TLR7, 20,000 for TLR8 and 25,000 for TLR9) and then treated with test compounds in DMSO to yield a final dose response concentration range of 0.05 nM-50 μM. After a 30 minute compound pre-treatment at room temperature, the cells are then stimulated with a TLR7 ligand (gardiquimod at a final concentration of 7.5 μM), TLR8 ligand (R848 at a final concentration of 15.9 μM) or TLR9 ligand (ODN2006 at a final concentration of 5 nM) to activate NF-κB and AP-1 which induce the production of SEAP. After a 22 hour incubation at 37° C., 5% CO2, SEAP levels are determined with the addition of HEK-Blue™ Detection reagent (Invivogen), a cell culture medium that allows for detection of SEAP, according to manufacturer's specifications. The percent inhibition is determined as the % reduction in the HEK-Blue signal present in wells treated with agonist plus DMSO alone compared to wells treated with a known inhibitor.

human TLR9 = target: T2, human TLR9 (Homo sapiens, UniProt Q9NR96); test: TLR9 inhibition reporter assay (HEK-Blue SEAP reporter); assay type: cell-based; conditions: HEK-Blue cells overexpressing human TLR9; ODN2006 5 nM; 22 hour incubation
T2 construct: host or cells: HEK-Blue cells
T2 sequence (Q9NR96 26-1032): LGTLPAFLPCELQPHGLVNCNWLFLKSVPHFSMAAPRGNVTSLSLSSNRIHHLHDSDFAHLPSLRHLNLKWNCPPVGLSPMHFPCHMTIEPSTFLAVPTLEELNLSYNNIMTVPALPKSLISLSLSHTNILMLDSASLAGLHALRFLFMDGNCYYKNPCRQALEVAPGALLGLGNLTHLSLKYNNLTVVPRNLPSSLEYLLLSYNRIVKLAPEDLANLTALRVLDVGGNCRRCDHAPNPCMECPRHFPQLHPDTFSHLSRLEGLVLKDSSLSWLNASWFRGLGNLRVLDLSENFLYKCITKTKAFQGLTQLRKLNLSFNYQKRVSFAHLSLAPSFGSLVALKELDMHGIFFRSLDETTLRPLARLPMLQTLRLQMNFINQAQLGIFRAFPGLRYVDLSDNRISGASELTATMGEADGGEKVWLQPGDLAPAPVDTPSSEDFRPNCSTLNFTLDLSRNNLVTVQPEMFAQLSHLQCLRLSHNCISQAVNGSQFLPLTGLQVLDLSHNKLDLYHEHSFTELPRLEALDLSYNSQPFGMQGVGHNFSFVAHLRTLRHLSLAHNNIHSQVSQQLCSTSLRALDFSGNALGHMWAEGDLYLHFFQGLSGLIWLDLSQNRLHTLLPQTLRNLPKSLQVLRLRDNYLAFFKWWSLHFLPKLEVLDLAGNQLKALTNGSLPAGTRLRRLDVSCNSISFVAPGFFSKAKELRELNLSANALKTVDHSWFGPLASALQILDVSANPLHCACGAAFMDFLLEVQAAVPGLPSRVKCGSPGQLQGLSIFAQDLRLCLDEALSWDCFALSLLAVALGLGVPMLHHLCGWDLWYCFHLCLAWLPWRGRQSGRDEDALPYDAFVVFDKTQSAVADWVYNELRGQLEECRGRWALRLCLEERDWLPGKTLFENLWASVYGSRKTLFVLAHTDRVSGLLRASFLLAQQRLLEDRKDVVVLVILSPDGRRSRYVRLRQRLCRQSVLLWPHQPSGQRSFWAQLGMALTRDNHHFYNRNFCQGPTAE
Description: as §1, §2

Compound | IC50 (human TLR7) | IC50 (human TLR9)
COc1ccc(-c2[nH]c3ccc(N4CCC(C5CCN(Cc6ccsc6)CC5)CC4)cc3c2C(C)C)cc1OC [Example 98, 2-(3,4-dimethoxyphenyl)-3-isopropyl-5-(1′-(thiophen-3-ylmethyl)-[4, 4′-bipiperidin]-1-yl)-1H-indole] | 181 nM | 1520 nM
COc1ccc(-c2[nH]c3ccc(N4CCC(N5CCN(CCN6CCCC6)CC5)CC4)cc3c2C(C)C)cc1OC [Example 100, 2-(3,4-dimethoxyphenyl)-3-isopropyl-5-(4-(4-(2-(pyrrolidin-1-yl)ethyl)piperazin-1-yl)piperidin-1-yl)-1H-indole] | 102 nM | 1010 nM
COc1ccc(-c2[nH]c3ccc(N4CCC(N5CCN(Cc6ccc(C)cc6)CC5)CC4)cc3c2C(C)C)cc1OC [Example 101, 2-(3,4-dimethoxyphenyl)-3-isopropyl-5-(4-(4-(4-methylbenzyl)piperazin-1-yl)piperidin-1-yl)-1H-indole] | 1350 nM | 1900 nM
COc1ccc(-c2[nH]c3ccc(N4CCC(N5CCCN(C)CC5)CC4)cc3c2C(C)C)cc1OC [Example 123, 2-(3,4-dimethoxyphenyl)-3-isopropyl-5-(4-(4-methyl-1,4-diazepan-1-yl)piperidin-1-yl)-1H-indole] | 281 nM | 1690 nM
CCc1c(-c2ccc(OC)c(OC)c2)[nH]c2ccc(NC3CCN(C4CCN(C)CC4)CC3)cc12 [Example 125, 2-(3,4-dimethoxyphenyl)-3-ethyl-N-(1′-methyl-[1,4′-bipiperidin]-4-yl)-1H-indol-5-amine] | 376 nM | 758 nM
CCc1c(-c2ccc(OC)c(OC)c2)[nH]c2ccc(N3CCC(OC4CCNCC4)CC3)cc12 [Example 132, 2-(3,4-dimethoxyphenyl)-3-ethyl-5-(4-(piperidin-4-yloxy)piperidin-1-yl)-1H-indole] | 250 nM | 1050 nM
CCc1c(-c2ccc(OC)c(OC)c2)[nH]c2ccc(N3CCN(CCNC)CC3)cc12 [Example 140, 2-(4-(2-(3,4-dimethoxyphenyl)-3-ethyl-1H-indol-5-yl)piperazin-1-yl)-N-methylethan-1-amine] | 235 nM | 3940 nM
CCc1c(-c2ccc(OC)c(OC)c2)[nH]c2ccc(N3CCCN(CCNC)CC3)cc12 [Example 178, 2-(4-(2-(3,4-dimethoxyphenyl)-3-ethyl-1H-indol-5-yl)-1,4-diazepan-1-yl)-N-methylethan-1-amine] | 1040 nM | 2300 nM
CCc1c(-c2ccc(OC)c(OC)c2)[nH]c2ccc(N3CCCN(C4CCN(C)CC4)CC3)cc12 [Example 179, 2-(3,4-dimethoxyphenyl)-3-ethyl-5-(4-(1-methylpiperidin-4-yl)-1,4-diazepan-1-yl)-1H-indole] | 831 nM | 1100 nM
CCc1c(-c2ccc(OC)c(OC)c2)[nH]c2ccc(N3CCCN(C4CCN(C(C)C)CC4)CC3)cc12 [Example 180, 2-(3,4-dimethoxyphenyl)-3-ethyl-5-(4-(1-isopropylpiperidin-4-yl)-1,4-diazepan-1-yl)-1H-indole] | 537 nM | 652 nM
CCc1c(-c2ccc(OC)c(OC)c2)[nH]c2ccc(N3CCC(OC4CCN(CC)CC4)CC3)cc12 [Example 188, 2-(3,4-dimethoxyphenyl)-3-ethyl-5-(4-((1-ethylpiperidin-4-yl)oxy)piperidin-1-yl)-1H-indole] | 161 nM | 986 nM
CCc1c(-c2ccc(OC)c(OC)c2)[nH]c2ccc(N3CCC(OC4CCN(C5CC(C)(C)NC(C)(C)C5)CC4)CC3)cc12 [Example 193, 2-(3,4-dimethoxyphenyl)-3-ethyl-5-(4-((2′,2′,6′,6′-tetramethyl-[1,4′-bipiperidin]-4-yl)oxy)piperidin-1-yl)-1H-indole] | 81 nM | 546 nM

The next lines start with the values.

IC50 (human TLR7) | IC50 (human TLR9) | Compound
70 nM | 2960 nM | CCc1c(-c2ccnc(OC)c2)[nH]c2ccc(N3CCN(CCNC)CC3)cc12 [Example 137, 2-(4-(3-ethyl-2-(2-methoxypyridin-4-yl)-1H-indol-5-yl)piperazin-1-yl)-N-methylethan-1-amine]
2460 nM | 197 nM | CCN1CCC(N2CCN(c3ccc4[nH]c(-c5ccnc6[nH]ccc56)c(C)c4c3)CC2)CC1 [Example 145, 4-(5-(4-(1-ethylpiperidin-4-yl)piperazin-1-yl)-3-methyl-1H-indol-2-yl)-1H-pyrrolo[2,3-b]pyridine]
2220 nM | 342 nM | CCc1c(-c2ccnc(C)c2)[nH]c2ccc(N3CCN(C4CCN(CC(C)C)CC4)CC3)cc12 [Example 152, 3-ethyl-5-(4-(1-isobutylpiperidin-4-yl)piperazin-1-yl)-2-(2-methylpyridin-4-yl)-1H-indole]
5180 nM | 411 nM | CC(C)c1c(-c2ccnc3[nH]ncc23)[nH]c2ccc(N3CCN(C4CCN(C(C)C)CC4)CC3)cc12 [Example 167, 4-(3-isopropyl-5-(4-(1-isopropylpiperidin-4-yl)piperazin-1-yl)-1H-indol-2-yl)-1H-pyrazolo[3,4-b]pyridine]
16100 nM | 441 nM | Cc1c(-c2ccnc3[nH]ccc23)[nH]c2ccc(N3CCC4(CCN(Cc5cccn5C)CC4)CC3)cc12 [Example 189, 3-((1-methyl-1H-pyrrol-2-yl)methyl)-9-(3-methyl-2-(1H-pyrrolo[2,3-b]pyridin-4-yl)-1H-indol-5-yl)-3,9-diazaspiro[5.5]undecane]
